The values below come from the supplement of paper PMC8671470.

Holding throughout (conditions): 72 h
Assay [1] concerns HL-60. Nature of the assay: cell viability (% survival relative to DMSO control); higher = less cytotoxic. In short, it runs like this:
(§1)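 HL-60 cells grown in RPMI 1640 with 10% FBS were rescreened against the full library in 384-well plates, in duplicate, at five tenfold concentrations from 1 to 10,000 nM, alongside DMSO or 100 nM of one of three metabolic inhibitors for 72 h at 37 °C, 5% CO2. Reference wells contained DMSO or 10 μM proteasome inhibitor. Viability was read with CellTiter-Glo and normalised to these reference wells, and where reported, area under the curve was taken from four-parameter log-logistic fits in drc and PharmacoGx.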

The test system of assay [2] is HL-60. Nature of the assay: area under dose-response curve (viability, 1 nM-10 uM) (fraction (0-1)); higher = more sensitive. In short, it runs like this: as §1
Another assay has as its system ML-2. A digest of the protocol: (§2)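 The IC50 was derived from log-logistic dose–response fitting. Each of fifteen myeloid leukaemia cell lines, seeded in RPMI 1640 within its linear growth range, was exposed in 384-well plates to five tenfold doses (1 to 10,000 nM) in duplicate for 72 h at 37 °C and 5% CO2. Luminescent ATP viability readings were normalised to vehicle and to a positive control at 10 µM before four-parameter curve fitting.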

The next assay has as its system THP-1. In short, it runs like this:
as §2

The next assay deals with K-562. A digest of the protocol:
as §2

A further assay relates to Mono-Mac-6. A digest of the protocol: as §2
A further assay has as its system KCL-22. A digest of the protocol:
as §2

A further assay has as its system NOMO-1. In short, it runs like this: as §2
Another assay concerns MOLM-13. A digest of the protocol: as §2
In another assay the test system is BV-173. In short, it runs like this: as §2
The test system of the next assay is KG-1. A digest of the protocol:
as §2

The next assay deals with LAMA-84. A digest of the protocol:
as §2

For a further assay, the system named is HEL. In short, it runs like this:
as §2

The next assay relates to KU-812. In short, it runs like this: as §2
In the next assay the test system is SHI-1. In short, it runs like this: as §2
A further assay deals with MV4-11. A digest of the protocol: as §2
Assay [3] relates to HL-60. A digest of the protocol:
as §2

The mark [4] stands for this setting: 0.001 µM, co-treatment: AZD3965 100 nM.
Where [5] appears, read: 0.001 µM, co-treatment: DMSO vehicle.
[6] abbreviates: 0.001 µM, co-treatment: GSK2194069 100 nM.
Where [7] appears, read: 0.001 µM, co-treatment: pictilisib 100 nM.
[8] abbreviates: 0.01 µM, co-treatment: AZD3965 100 nM.
Where [9] appears, read: 0.01 µM, co-treatment: DMSO vehicle.
The mark [10] stands for this setting: 0.01 µM, co-treatment: GSK2194069 100 nM.
[11] abbreviates: 0.01 µM, co-treatment: pictilisib 100 nM.
[12] abbreviates: 0.1 µM, co-treatment: AZD3965 100 nM.
Setting [13] is: 0.1 µM, co-treatment: DMSO vehicle.
The mark [14] stands for this setting: 0.1 µM, co-treatment: GSK2194069 100 nM.
The mark [15] stands for this setting: 0.1 µM, co-treatment: pictilisib 100 nM.
[16] abbreviates: 1 µM, co-treatment: AZD3965 100 nM.
Setting [17] is: 1 µM, co-treatment: DMSO vehicle.
Where [18] appears, read: 1 µM, co-treatment: GSK2194069 100 nM.
Setting [19] is: 1 µM, co-treatment: pictilisib 100 nM.
Where [20] appears, read: 10 µM, co-treatment: AZD3965 100 nM.
Setting [21] is: 10 µM, co-treatment: DMSO vehicle.
Setting [22] is: 10 µM, co-treatment: GSK2194069 100 nM.
The mark [23] stands for this setting: 10 µM, co-treatment: pictilisib 100 nM.
[24] abbreviates: co-treatment: GSK2194069 100 nM.
Where [25] appears, read: co-treatment: pictilisib 100 nM.

SMILES strings stand for the structures. ± gives the standard deviation of the averaged measurements.

On to `Cc1c2c(=O)n(-c3ccccc3Cl)[nH]c2cc(=O)n1Cc1ccccn1`, for which the cell viability in the assay on HL-60 [1] (setting [4]) turned out to be 103 ± 2.9%; in the assay with HL-60 [1] (setting [5]) it was 103 ± 1.8%; with HL-60 [1] (setting [6]), 101 ± 3.2%; with HL-60 [1] (setting [7]) it was 96.69 ± 0.41%; in the assay on HL-60 [1] (setting [8]), 103 ± 4.3%; with HL-60 [1] (setting [9]), 103 ± 1.3%. For the same compound, the cell viability in the assay on HL-60 [1] (setting [10]) was determined as 105 ± 5%; in the assay on HL-60 [1] (setting [11]), 103 ± 18%; with HL-60 [1] (setting [12]) it was 96.9 ± 3.3%; with HL-60 [1] (setting [13]), 99.6 ± 8.5%; in the assay with HL-60 [1] (setting [14]) it was 98.8 ± 5.7%; with HL-60 [1] (setting [15]), 100 ± 1.9%. The cell viability in the assay with HL-60 [1] (setting [16]) was found to be 98.6 ± 5.4%; with HL-60 [1] (setting [17]), 99.25 ± 0.98%; in the assay with HL-60 [1] (setting [18]) it was 101 ± 6.8%; in the assay on HL-60 [1] (setting [19]) it was 95.2 ± 3.8%; in the assay on HL-60 [1] (setting [20]), 96.6 ± 4%; in the assay with HL-60 [1] (setting [21]) it was 101 ± 8.3%. In addition, the cell viability in the assay with HL-60 [1] (setting [22]) was determined as 96.5 ± 3.9%; in the assay on HL-60 [1] (setting [23]), 94.8 ± 2.1%. Further, the “area under dose-response curve” value in the assay on HL-60 [2] (co-treatment: AZD3965 100 nM), with HL-60 [2] (co-treatment: DMSO vehicle), with HL-60 [2] (setting [24]) and in the assay on HL-60 [2] (setting [25]) was less than 0.0301 throughout.
For the compound `O=C(Nc1ccccc1)c1cc([N+](=O)[O-])ccc1Cl` [GW-9662], the cell viability came to 104 ± 4.8% with HL-60 [1] (setting [4]); 100.8 ± 0.15% in the assay on HL-60 [1] (setting [5]); 99.4 ± 3.7% in the assay on HL-60 [1] (setting [6]); 106.5 ± 0.24% in the assay on HL-60 [1] (setting [7]); 97.15 ± 0.3% in the assay on HL-60 [1] (setting [8]); 103.27 ± 0.069% with HL-60 [1] (setting [9]). Further, the cell viability worked out at 92.6 ± 11% in the assay with HL-60 [1] (setting [10]); 96.8 ± 5.1% with HL-60 [1] (setting [11]); 102 ± 3.9% in the assay on HL-60 [1] (setting [12]); 100 ± 2.6% in the assay with HL-60 [1] (setting [13]); 98.7 ± 5.5% in the assay on HL-60 [1] (setting [14]); 97.9 ± 2.5% with HL-60 [1] (setting [15]). Moreover, the cell viability in the assay with HL-60 [1] (setting [16]) was found to be 100 ± 2.4%; with HL-60 [1] (setting [17]) it was 100.8 ± 0.79%; in the assay with HL-60 [1] (setting [18]), 96.1 ± 1.9%; in the assay with HL-60 [1] (setting [19]) it was 99.3 ± 5.7%; in the assay with HL-60 [1] (setting [20]) it was 90.1 ± 20%; with HL-60 [1] (setting [21]), 95.6 ± 2.1%. The cell viability amounted to 87.2 ± 8.5% in the assay on HL-60 [1] (setting [22]) and 94.4 ± 16% with HL-60 [1] (setting [23]). Besides, the “area under dose-response curve” value in the assay on HL-60 [2] (co-treatment: AZD3965 100 nM), in the assay with HL-60 [2] (co-treatment: DMSO vehicle), in the assay on HL-60 [2] (setting [24]) and in the assay with HL-60 [2] (setting [25]) was less than 0.0301 each time.
Take `CC(C(=O)O)c1cccc(C(=O)c2ccccc2)c1` (configuration not stated) [Ketoprofen]: the “IC50 (cell viability)” value in the assay with ML-2, in the assay with THP-1, in the assay on K-562, in the assay on Mono-Mac-6, in the assay on KCL-22 and in the assay with NOMO-1 was more than 10 µM throughout. For the same compound, the “IC50 (cell viability)” value with MOLM-13, in the assay on BV-173, with KG-1, with LAMA-84, in the assay with HEL and with KU-812 was more than 10 µM in each case. Also, the “IC50 (cell viability)” value with SHI-1, with MV4-11 and with HL-60 [3] was more than 10 µM in each case.
As to `Clc1ccccc1CN1CCc2sccc2C1` [Ticlopidine], the “IC50 (cell viability)” value with ML-2, in the assay on THP-1, with K-562, in the assay with Mono-Mac-6, with KCL-22 and with NOMO-1 was more than 10 µM each time. The “IC50 (cell viability)” value in the assay with MOLM-13, in the assay on BV-173, with KG-1, in the assay with LAMA-84, with HEL and with KU-812 was more than 10 µM each time. Further, the “IC50 (cell viability)” value in the assay on SHI-1, in the assay on MV4-11 and with HL-60 [3] was more than 10 µM throughout.
Turning to `CC(C(=O)O)C(=O)O` [methylmalonate], the cell viability in the assay with HL-60 [1] (setting [4]) came to 100 ± 1.6%; in the assay with HL-60 [1] (setting [5]) it was 97.43 ± 0.96%; with HL-60 [1] (setting [6]), 101 ± 5.3%; in the assay with HL-60 [1] (setting [7]), 105 ± 14%; in the assay on HL-60 [1] (setting [8]), 96.1 ± 3%; in the assay on HL-60 [1] (setting [9]) it was 99.6 ± 0.36%. For the same compound, the cell viability with HL-60 [1] (setting [10]) was found to be 97.9 ± 8.9%; in the assay on HL-60 [1] (setting [11]), 103 ± 6.5%; with HL-60 [1] (setting [12]), 81.8 ± 19%; with HL-60 [1] (setting [13]), 96.753 ± 0.087%; with HL-60 [1] (setting [14]), 95.2 ± 10%; with HL-60 [1] (setting [15]) it was 87.7 ± 20%. The cell viability is 107 ± 12% in the assay on HL-60 [1] (setting [16]); 100.6 ± 0.51% in the assay with HL-60 [1] (setting [17]); 106 ± 2.2% in the assay on HL-60 [1] (setting [18]); 84.2 ± 32% with HL-60 [1] (setting [19]); 98.6 ± 5.8% in the assay with HL-60 [1] (setting [20]); 99 ± 3.8% in the assay with HL-60 [1] (setting [21]). The cell viability in the assay with HL-60 [1] (setting [22]) came out at 103.3 ± 0.24%; in the assay with HL-60 [1] (setting [23]), 108.9 ± 0.38%. For the same compound, the “area under dose-response curve” value in the assay on HL-60 [2] (co-treatment: AZD3965 100 nM), in the assay on HL-60 [2] (co-treatment: DMSO vehicle), with HL-60 [2] (setting [24]) and with HL-60 [2] (setting [25]) was less than 0.0301 in each case.

The term cell viability denotes a read-out of living cells in per cent, often relative to untreated cells.
